The values that follow are results of earlier work, collected in paper PMC7044277 (Nature Communications, 2020).

This series deals with DRD2 F1103.28A (Homo sapiens, UniProt P14416, F110A). The following applies: cited from earlier work.

Each structure is given as a SMILES string. “Also recorded” adds a separate entry of the source. Like-named read-outs stand apart in the source and are kept apart here.

Sequence of DRD2 F1103.28A (P14416 whole entry F110A): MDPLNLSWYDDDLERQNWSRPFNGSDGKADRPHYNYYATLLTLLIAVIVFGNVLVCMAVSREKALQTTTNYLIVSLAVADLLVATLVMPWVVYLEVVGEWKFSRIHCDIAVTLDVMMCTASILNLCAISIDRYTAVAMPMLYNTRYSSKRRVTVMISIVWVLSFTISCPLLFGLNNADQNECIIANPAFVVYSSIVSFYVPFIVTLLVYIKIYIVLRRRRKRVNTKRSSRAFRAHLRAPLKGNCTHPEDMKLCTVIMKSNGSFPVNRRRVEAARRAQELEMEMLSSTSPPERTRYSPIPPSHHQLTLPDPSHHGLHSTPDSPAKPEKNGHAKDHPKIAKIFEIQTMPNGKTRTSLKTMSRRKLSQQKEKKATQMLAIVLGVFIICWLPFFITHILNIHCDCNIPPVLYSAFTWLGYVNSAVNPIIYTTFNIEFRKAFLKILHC

Regarding `CNc1cc(OC)c(C(=O)NC2CCN(Cc3ccccc3)C2C)cc1Cl` (centres unmarked) [nemonapride], the “effect of Phe110^3.28Ala mutation on binding” value is on record as “did not enhance the binding; also recorded: didn’t enhance the binding”.
For the compound `Cc1nc2n(c(=O)c1CCN1CCC(c3noc4cc(F)ccc34)CC1)CCCC2` [risperidone], the “effect of Phe110^3.28Ala mutation on binding” value (previous published studies) is “did not enhance the binding; also recorded: didn’t enhance the binding”.
